Test system: Rattus norvegicus
Experiment: Anti-inflammatory activity in Rattus norvegicus albino (rat) assessed as inhibition of carrageenan-induced paw edema at 100 mg/kg, po administered 1 to 3 hr prior challenge
Assay type: functional

First: CCCCc1nc(Cl)c(C=O)n1CC(=O)c1ccc(Cl)cc1
Second: CCCCc1nc(Cl)c(C=O)n1CC(=O)c1ccccc1
The inhibition in vivo at 100 mg/kg of the first is higher: 28% for the first, 26% for the second.

First: CCCCc1nc(Cl)c(C=O)n1Cc1cc2c(cc1C)OCO2
Second: CC(C)Cc1ccc(C(C)C(=O)O)cc1 (centres undefined) [IBUPROFEN]
The inhibition in vivo at 100 mg/kg of the first is lower: 26% for the first, 49% for the second.
